Source: article PMC8533089, “Characteristics of Neurokinin-3 Receptor and Its Binding Sites by Mutational Analysis” (Biology, 2021)
Read-outs that look alike come from different tables or passages of the source. Where no end group is shown, it is not given here.

Key:
FSH and LH release = settings: in vivo and in vitro; cited from earlier work
Excerpt: (§1) The effect of NKB/NKF peptides on gonadotropin secretion in fish is already well established. The first indication that NKB is widely expressed in fish species and has a stimulatory reproductive effect was shown in zebrafish, goldfish, and tilapia. […] Osetanant re ...

FSH levels = settings: daily oral dosing throughout the menstrual cycle; cited from earlier work
Excerpt: as §1

[1] = target: native tilapia Tac3Ra (WT); assay: CRE-Luc receptor transactivation assay, wild-type receptor, COS-7; format: cell-based, tilapia (Oreochromis niloticus)
Procedure: (§2) In order to study the signaling pathways of the mutant tiTac3Ra, the entire coding regions of tiTac3Ra (GenBank accession no. KF471674), and both of the mutant receptors were inserted into pcDNA3.1 (Invitrogen, Massachusetts, United States). We used a sensitive luciferase (LUC) reporter gene assay. […] Transient transfection, cell procedures and stimulation protocols followed the procedures previously described. Briefly, 3 μg of each construct, together with 3 μg of a luciferase reporter plasmid were transiently transfected into COS-7 cells (American Type Culture Collection, Manassas, VA, USA). Forty-eight hours after transfection, cells transfected with Tac3Ra plasmid fused with GFP were applied with an Hoechst dye (Invitrogen, Massachusetts, United States; diluted 1:1000) in order to mark nuclei in the culture for transfection analysis.
(§3) Cells transfected with the tiTac3Ra construct and luciferase reporter plasmid were treated with tilapia NKB (tiNKB) and tiNKF at increasing doses (0.2–1000 nM). Luciferase activity (Luc) was measured, and compared to basal treatment, and the maximal effect (Luc fold activation) was calculated for each treatment.

tiTac3Ra mutant F251A = assay: CRE-Luc receptor transactivation assay, F251A mutant, COS-7; format: cell-based, tilapia (Oreochromis niloticus)
Excerpt: (§4) The expression vector for tilapia tiTac3Ra (GenBank accession no. KF471674) was modified with the Stratagene QuikChange mutagenesis kit (Stratagene, La Jolla, CA, USA), according to the manufacturer’s instructions using two complementary primers (Table 1). The procedure included 18 PCR cycles as specified by the manufacturer’s manual, and the use of Pfu polymerase for the reaction. The mutated construct was then digested with the restriction enzyme DpnI, which is specific to methylated and hemi-methylated DNA, to digest the template and to select the mutation-containing synthesized DNA. The vector was then transfected into XL1 competent cells (E.coli). Two colonies were sequenced and confirmed to contain the mutation without any undesired misincorporation of nucleotides.
(§5) In order to study the signaling pathways of the mutant tiTac3Ra, the entire coding regions of tiTac3Ra (GenBank accession no. KF471674), and both of the mutant receptors were inserted into pcDNA3.1 (Invitrogen, Massachusetts, United States). We used a sensitive luciferase (LUC) reporter gene assay. […]
as §3

tiTac3Ra mutant M289A = assay: CRE-Luc receptor transactivation assay, M289A mutant, COS-7; format: cell-based, tilapia (Oreochromis niloticus)
Excerpt: as §4, §5, §3

tiTac3Ra = tiTac3Ra (Oreochromis niloticus, UniProt A0A075QPN8); assay: CRE-Luc antagonist assay, wild-type receptor, COS-7; format: cell-based, tilapia (Oreochromis niloticus); settings: for IC50: antagonist 0.001–1000 μM added 10 min before peptide, COS-7, CRE-Luc
Procedure: as §2
Non-peptide molecules, SB-222200 (Sigma, Merck, Darmstadt, Germany) and Osanetant (Axon Medchem, Reston, VA, USA), known to antagonize mammalian NK3R [49] were studied for their ability to antagonize tiTac3Ra, which was activated with a fixed dose of the native ligands (10 nM tiNKB or tiNKF), combined with increasing doses of the antagonists (0.001–1000 μM). The antagonists were added 10 min prior to the addition of the peptides. IC50 values were calculated from concentration response curves by means of computerized nonlinear curve-fitting with Prism version 9 software (GraphPad, San Diego, CA, USA). All experiments were repeated at least 3 times using cells from independent transfections, each performed in triplicate.
NKB antagonists, SB-222200 (Figure 7A) and Osanetant (Figure 7B) were added in increasing concentrations (0.001–1000 μM) to transfected COS-7 that expressed tiTac3Ra. Ten minutes after the induction of the antagonists, the ligand, tiNKB or tiNKF (10 nM) was added to the media.

LH plasma levels = assay: In vivo effect of NKB antagonists on LH plasma levels (ELISA); parameters: species or system adult male tilapia (Oreochromis niloticus); settings: antagonist 100 µg/kg BW IP, then sGnRHa 10 µg/kg BW after 0.5 h; n = 10
Procedure: (§6) The levels of FSH, LH and GH in the plasma were measured by specific competitive enzyme-linked immunosorbent assay (ELISA), developed for tilapia, based on recombinant gonadotropins or GH that were created by using the yeast Pichia pastoris. For the ELISAs, we used primary antibody antisera against GH [51], FSHβ [52], or against rtLHβ [53], and rtFSHβα [52], rtLHβ [53] or tiGH for the standard curves. Sensitivity for the plasma measurements were 15.84 pg/mL for LH, 0.24 pg/mL for FSH and 30.0 pg/mL for GH. The inter-assay coefficient of variation (CV) was 14.8, 12.5, and 13.0%, while intra-assay CV was 7.2, 8.0, and 8.0% for LH, FSH and GH, respectively.
(§7) Adult male tilapia (BW 89.29 ± 32.93 g; gonado-somatic index (GSI) 0.24% ± 0.40%) were injected IP (intraperitoneal) with NKB antagonists, SB-222200 or Osanetant (100 µg/kg BW), and after 0.5 h, a second injection of sGnRHa (10 µg/kg BW) was added. Control groups were injected with sGnRHa ([DAla^6, Pro^9-Net]-mammalian GnRH; Bachem, Budendorf, Switzerland) 10 µg/kg BW) as a positive control. The fish were bled from the caudal blood vessels into heparinized syringes 0, 0.5, 2, 6 and 24 h after injection. This time course is according to standard protocols used previously to test the effect of GnRH on circulating levels of LH, FSH, and GH in tilapia. Blood samples were collected from the caudal vasculature and centrifuged (3200 rpm for 30 min at 4 °C) (Centrifuge: Fresco 17, Rotor: 75003424, Thermo Scientific™, Langenselbold Germany) to obtain plasma samples, which were stored at −20 °C until assayed. Three independent experiments were carried out for the in-vivo studies.

FSH plasma levels = assay: In vivo effect of NKB antagonists on FSH plasma levels (ELISA); parameters: species or system adult male tilapia (Oreochromis niloticus); settings: antagonist 100 µg/kg BW IP, sGnRHa 10 µg/kg BW after 0.5 h; n = 10
Procedure: as §6
as §7, with “Blood samples were collected from the caudal vasculature and centrifuged (3200 rpm for 30 min at 4 °C) (Centrifuge: Fresco 17, Rotor: 75003424, Thermo Scientific™, Langenselbold Germany) to obtain plasma samples, which were stored at −20 °C until assayed. Three independent experiments were carried out for the in-vivo studies.” left out

[2] = target: tiTac3Ra F251A mutant (Nile tilapia (Oreochromis niloticus))
[3] = target: tiTac3Ra M289A mutant (Nile tilapia (Oreochromis niloticus))
[4] = target: tilapia Tachykinin 3 receptor a (tiTac3Ra), wild type (Nile tilapia (Oreochromis niloticus))

Sequence of tiTac3Ra (A0A075QPN8 entry or part of it): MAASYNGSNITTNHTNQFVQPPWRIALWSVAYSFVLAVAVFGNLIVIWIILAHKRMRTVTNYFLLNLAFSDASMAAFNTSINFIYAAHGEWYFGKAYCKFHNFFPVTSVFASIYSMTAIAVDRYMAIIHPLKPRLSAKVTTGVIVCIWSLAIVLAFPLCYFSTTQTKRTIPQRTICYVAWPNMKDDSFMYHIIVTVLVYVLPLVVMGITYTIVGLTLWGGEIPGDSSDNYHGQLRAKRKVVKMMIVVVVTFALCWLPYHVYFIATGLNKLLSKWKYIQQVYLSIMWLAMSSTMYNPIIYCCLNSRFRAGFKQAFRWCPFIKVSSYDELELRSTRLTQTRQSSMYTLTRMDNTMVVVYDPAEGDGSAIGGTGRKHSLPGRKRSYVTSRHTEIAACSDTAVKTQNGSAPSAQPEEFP

For “Succ-Asp-Ile-Phe-N(Me)Val-Gly-Leu-Met-NH2 [zfNKBa analog, zfNKBa analog (Succ-Asp-Ile-Phe-N(Me)Val-Gly-Leu-Met-NH2)]”, the “FSH and LH release” value (FSH and LH release) is given as “significantly increased FSH and LH release both in-vivo and in-vitro”.

In the case of `Cc1nsc(-c2nnc3n2CCN(C(=O)c2ccc(F)cc2)[C@@H]3C)n1` [ESN364], the FSH levels (FSH levels) is given as “did not alter FSH levels”.

In the case of “pyroglutaminated [p]-EMDDIFIGLM-NH2 [tiNKB, native tilapia Neurokinin B peptide, synthesized by GL Biochem]”, the EC50 ([1]; CRE-Luc, COS-7, 0.2–1000 nM, calculated when max effect >2.0) is reported as 2.48 ± 0.05 nM, the Min effective dose ([1]; CRE-Luc, COS-7, WT) is reported as 0.316 nM and the “Max effect (Luc fold activation)” value ([1]; WT, COS-7, CRE-Luc, vs basal, 0.2–1000 nM) is reported as 3.36 ± 0.46 Luc fold activation. For the same molecule, the “Max effect (Luc fold activation)” value (tiTac3Ra mutant F251A; F251A, COS-7, CRE-Luc, vs basal, 0.2–1000 nM) was 2.0 ± 0.32 Luc fold activation, the “receptor activity of mutant versus WT (CRE-luciferase)” value (tiTac3Ra mutant F251A; Phe251^6.44Ala, 0.2–1000 nM peptide) was “substantial decrease in receptor activity” and the “Max effect (Luc fold activation)” value (tiTac3Ra mutant M289A; M289A, COS-7, CRE-Luc, vs basal, 0.2–1000 nM) was 1.71 ± 0.46 Luc fold activation. The “receptor activity of mutant versus WT (CRE-luciferase)” value (tiTac3Ra mutant M289A; Met289^7.43Ala, 0.2–1000 nM peptide) was “substantial decrease in receptor activity”.

In the case of `CC(=O)N(C)C1(c2ccccc2)CCN(CCC[C@]2(c3ccc(Cl)c(Cl)c3)CCCN(C(=O)c3ccccc3)C2)CC1` [Osanetant], the IC50 (tiTac3Ra; 10 nM tiNKB, read-out: IC50 versus tiNKB) is reported as 212000 nM, the IC50 (tiTac3Ra; 10 nM tiNKF, read-out: IC50 versus tiNKF) is reported as 122000 nM and the “inhibitory effect on Tac3Ra activation” value (tiTac3Ra; in words) is reported as “strong inhibitory effect”. For the same molecule, the “LH release, combination with sGnRHa” value (LH plasma levels) was “no inhibitory effects on LH plasma levels” and the “FSH levels, 2 h post injection, combination with sGnRHa” value (FSH plasma levels) was “increased FSH levels”.

For “Succ-Asp-Phe-N(Me)Val-Gly-Leu-Met-NH2 [zfNKBb analog, zfNKBb analog (Succ-Asp-Phe-N(Me)Val-Gly-Leu-Met-NH2)]”, the “FSH and LH release” value (FSH and LH release) is given as “significantly increased FSH and LH release both in-vivo and in-vitro”.

In the case of “Succ-Asp-Ile-Phe-N(Me)Ile-Gly-Leu-Met-NH2 [tiNKB analog, tiNKB analog (Succ-Asp-Ile-Phe-N(Me)Ile-Gly-Leu-Met-NH2)]”, the “FSH and LH release” value (FSH and LH release) is given as “significantly increased FSH and LH release both in-vivo and in-vitro”.

For “Succ-Asp-Ser-Phe-N(Me)Val-Gly-Leu-Met-NH2 [NKF analog, NKF analog (Succ-Asp-Ser-Phe-N(Me)Val-Gly-Leu-Met-NH2)]”, the “FSH and LH release” value (FSH and LH release) is given as “significantly increased FSH and LH release both in-vivo and in-vitro”.

YNDLDYDSFVGLM-NH2 [Tilapia NKF (neurokinin F)] showed a Max effect (Luc fold activation), CRE-luciferase receptor transactivation in transfected COS-7 cells, peptide 0.2-1000 nM (Luc fold activation) [2] of 1.99, a Max effect (Luc fold activation), CRE-luciferase receptor transactivation in transfected COS-7 cells, peptide 0.2-1000 nM (Luc fold activation) [3] of 1.84 and an EC50 (nM) of CRE-luciferase receptor transactivation in transfected COS-7 cells, peptide 0.2-1000 nM [4] of 65.2 nM. The Max effect (Luc fold activation), CRE-luciferase receptor transactivation in transfected COS-7 cells, peptide 0.2-1000 nM (Luc fold activation) [4] was 3.87 and the Min effective dose (nM), CRE-luciferase receptor transactivation in transfected COS-7 cells [4] was 0.316 nM.

B1: Tilapia NKB (neurokinin B) (peptide)
peptide: EMDDIFIGLM
HELM: PEPTIDE1{[Glp].M.D.D.I.F.I.G.L.M.[am]}$$$$V2.0
SMILES: CC[C@H](C)[C@H](NC(=O)[C@H](Cc1ccccc1)NC(=O)[C@@H](NC(=O)[C@H](CC(=O)O)NC(=O)[C@H](CC(=O)O)NC(=O)[C@H](CCSC)NC(=O)[C@@H]1CCC(=O)N1)[C@@H](C)CC)C(=O)NCC(=O)N[C@@H](CC(C)C)C(=O)N[C@@H](CCSC)C(N)=O
Molecule B1 has a Max effect (Luc fold activation), CRE-luciferase receptor transactivation in transfected COS-7 cells, peptide 0.2-1000 nM (Luc fold activation) [2] of 2, a Max effect (Luc fold activation), CRE-luciferase receptor transactivation in transfected COS-7 cells, peptide 0.2-1000 nM (Luc fold activation) [3] of 1.71 and an EC50 (nM) of CRE-luciferase receptor transactivation in transfected COS-7 cells, peptide 0.2-1000 nM [4] of 2.48 nM. It also gave a Max effect (Luc fold activation), CRE-luciferase receptor transactivation in transfected COS-7 cells, peptide 0.2-1000 nM (Luc fold activation) [4] of 3.36 and a Min effective dose (nM), CRE-luciferase receptor transactivation in transfected COS-7 cells [4] of 0.316 nM.
